Laboratory results: article PMC12461607, “Profiling polyamine–protein interactions in live cells through photoaffinity labeling” (RSC Chemical Biology, 2025)

Target: T1, TUBA1C (Homo sapiens, UniProt Q9BQE3)
T1 construct: endogenous protein in live HeLa cells, no tag; modified C-terminal peptides 423-449 and 431-449
Assay: live-cell photoaffinity labelling, biotin enrichment, TMT LC-MS/MS
Type: cell-based
Conditions: covalent after UV 365 nm; live HeLa cells; C-terminal acidic region

T1 sequence (Q9BQE3 whole entry): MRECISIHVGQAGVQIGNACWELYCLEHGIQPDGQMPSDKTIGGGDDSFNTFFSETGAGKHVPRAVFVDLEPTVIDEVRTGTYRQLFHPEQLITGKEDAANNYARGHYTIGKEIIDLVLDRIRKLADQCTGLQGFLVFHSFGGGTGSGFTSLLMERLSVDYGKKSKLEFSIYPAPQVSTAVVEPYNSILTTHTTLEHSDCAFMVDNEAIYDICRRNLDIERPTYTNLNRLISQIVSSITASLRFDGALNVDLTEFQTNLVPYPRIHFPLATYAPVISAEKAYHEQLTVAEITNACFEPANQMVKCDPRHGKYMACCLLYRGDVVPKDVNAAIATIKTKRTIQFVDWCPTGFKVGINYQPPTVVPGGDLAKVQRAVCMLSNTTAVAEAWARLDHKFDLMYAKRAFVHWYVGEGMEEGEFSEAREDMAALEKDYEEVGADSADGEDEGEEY

SMILES | live-cell photoaffinity labelling, biotin enrichment, TMT LC-MS/MS
C#CCCC1(CCNCCCCNCCCN)N=N1 [compound 4, spermidine analog 4] | several tubulins (including TUBA1C)
C#CCCC1(CCNCCCNCCCCN)N=N1 [compound 5, spermidine analog 5] | several tubulins (including TUBA1C)
